Results on four compounds are retold here after ChEMBL document CHEMBL1150976, “The selectivity of protein kinase inhibitors: a further update” (Biochem J, 2007).

For test [1], the target named is SRSF protein kinase 1 (Homo sapiens) (UniProt Q96SB4). Description: Percentage SRPK1 activity remaining in the presence of 0.01uM inhibitor.
Test [2] addresses Tyrosine-protein kinase CSK (Homo sapiens, UniProt P41240). Description: Percentage CSK activity remaining in the presence of 25uM inhibitor.
For test [3], the target named is Rho-associated protein kinase 2 (Homo sapiens) (UniProt O75116). Description: Percentage ROCK2 activity remaining in the presence of 25uM inhibitor.
For test [4], the target named is Dual specificity mitogen-activated protein kinase kinase 1 (Homo sapiens) (UniProt Q02750). Description: Percentage MKK1 activity remaining in the presence of 25uM inhibitor.
The target of test [5] is RAC-alpha serine/threonine-protein kinase (Homo sapiens) (UniProt P31749). Description: Percentage PKBalpha activity remaining in the presence of 25uM inhibitor.
Test [6] concerns the target Proto-oncogene tyrosine-protein kinase LCK (Mus musculus) (UniProt P06240). Description: Percentage Lck activity remaining in the presence of 25uM inhibitor.
The target in test [7] is Ribosomal protein S6 kinase alpha-1 (Homo sapiens) (UniProt Q15418). Description: Percentage RSK1 activity remaining in the presence of 25uM inhibitor.
The target of test [8] is T1, Serine/threonine-protein kinase Sgk1 (Homo sapiens) (UniProt O00141).
T1 sequence (whole entry): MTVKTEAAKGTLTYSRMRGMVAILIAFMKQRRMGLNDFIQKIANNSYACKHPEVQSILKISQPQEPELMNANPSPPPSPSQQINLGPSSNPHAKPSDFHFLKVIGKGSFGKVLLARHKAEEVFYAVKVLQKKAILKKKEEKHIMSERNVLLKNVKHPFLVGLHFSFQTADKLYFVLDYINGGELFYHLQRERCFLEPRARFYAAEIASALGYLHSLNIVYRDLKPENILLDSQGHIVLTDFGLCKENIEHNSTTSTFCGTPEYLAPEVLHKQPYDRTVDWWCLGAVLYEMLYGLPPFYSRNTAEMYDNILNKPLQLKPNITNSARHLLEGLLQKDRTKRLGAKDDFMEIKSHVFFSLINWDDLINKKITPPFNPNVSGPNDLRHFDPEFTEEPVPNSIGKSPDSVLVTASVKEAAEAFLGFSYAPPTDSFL
Description: Percentage SGK1 activity remaining in the presence of 25uM inhibitor.

Test [9] concerns the target Mitogen-activated protein kinase 1 (Homo sapiens) (UniProt P28482). Description: Percentage ERK2 activity remaining in the presence of 25uM inhibitor.
Test [10] deals with Calcium/calmodulin-dependent protein kinase type 1 (Homo sapiens) (UniProt Q14012). Description: Percentage CaMK1 activity remaining in the presence of 25uM inhibitor.
Test [11] addresses T2, Serine/threonine-protein kinase 3 (Homo sapiens) (UniProt Q13188).
T2 sequence (whole entry): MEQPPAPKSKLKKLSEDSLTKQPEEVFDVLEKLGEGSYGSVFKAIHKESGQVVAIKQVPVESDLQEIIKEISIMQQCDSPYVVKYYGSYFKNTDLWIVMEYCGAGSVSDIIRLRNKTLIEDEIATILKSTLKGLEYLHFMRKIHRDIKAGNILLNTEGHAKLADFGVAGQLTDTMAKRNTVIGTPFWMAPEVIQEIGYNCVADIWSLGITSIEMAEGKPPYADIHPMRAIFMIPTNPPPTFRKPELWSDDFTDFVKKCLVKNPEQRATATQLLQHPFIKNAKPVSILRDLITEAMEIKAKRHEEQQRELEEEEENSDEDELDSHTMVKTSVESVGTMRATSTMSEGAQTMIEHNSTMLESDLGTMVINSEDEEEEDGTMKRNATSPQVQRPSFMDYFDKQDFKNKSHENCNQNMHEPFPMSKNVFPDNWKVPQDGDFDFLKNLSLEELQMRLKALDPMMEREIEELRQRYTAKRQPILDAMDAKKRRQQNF
Description: Percentage MST2 activity remaining in the presence of 25uM inhibitor.

The target of test [12] is Serine/threonine-protein kinase PLK1 (Homo sapiens, UniProt P53350). Description: Percentage PLK1 activity remaining in the presence of 25uM inhibitor.
Test [13] concerns the target Maternal embryonic leucine zipper kinase (Homo sapiens) (UniProt Q14680). Description: Percentage MELK activity remaining in the presence of 25uM inhibitor.
Test [14] addresses Calcium/calmodulin-dependent protein kinase kinase 1 (Homo sapiens) (UniProt Q8N5S9). Description: Percentage CaMKKalpha activity remaining in the presence of 25uM inhibitor.
The target in test [15] is MAP kinase-interacting serine/threonine-protein kinase 1 (Homo sapiens) (UniProt Q9BUB5). Description: Percentage MNK1 activity remaining in the presence of 25uM inhibitor.
Test [16] deals with Aurora kinase B (Homo sapiens, UniProt Q96GD4). Description: Percentage Aurora B activity remaining in the presence of 25uM inhibitor.
The target in test [17] is MAP kinase-interacting serine/threonine-protein kinase 2 (Homo sapiens) (UniProt Q9HBH9). Description: Percentage MNK2 activity remaining in the presence of 25uM inhibitor.
Test [18] concerns the target T3, Inhibitor of nuclear factor kappa-B kinase subunit beta (Homo sapiens) (UniProt O14920).
T3 sequence (whole entry): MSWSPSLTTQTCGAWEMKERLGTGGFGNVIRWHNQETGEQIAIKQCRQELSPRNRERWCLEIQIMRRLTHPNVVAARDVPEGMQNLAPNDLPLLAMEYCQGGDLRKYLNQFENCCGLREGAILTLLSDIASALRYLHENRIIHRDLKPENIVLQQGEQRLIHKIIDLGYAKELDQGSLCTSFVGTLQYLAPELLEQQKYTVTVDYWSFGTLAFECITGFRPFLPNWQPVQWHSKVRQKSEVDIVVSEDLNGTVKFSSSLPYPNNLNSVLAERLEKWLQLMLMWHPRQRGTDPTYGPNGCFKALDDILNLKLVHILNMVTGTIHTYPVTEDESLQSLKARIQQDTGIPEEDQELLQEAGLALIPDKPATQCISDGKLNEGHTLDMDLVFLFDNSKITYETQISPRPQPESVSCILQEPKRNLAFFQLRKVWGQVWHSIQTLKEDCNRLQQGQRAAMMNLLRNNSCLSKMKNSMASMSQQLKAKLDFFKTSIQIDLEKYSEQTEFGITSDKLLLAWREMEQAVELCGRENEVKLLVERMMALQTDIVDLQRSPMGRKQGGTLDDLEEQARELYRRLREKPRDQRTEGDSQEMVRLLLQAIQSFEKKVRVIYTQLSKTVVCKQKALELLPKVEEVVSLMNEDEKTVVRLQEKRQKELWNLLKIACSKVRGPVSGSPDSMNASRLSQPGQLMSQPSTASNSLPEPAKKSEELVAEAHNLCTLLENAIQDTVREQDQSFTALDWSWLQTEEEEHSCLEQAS
Description: Percentage IKK-beta activity remaining in the presence of 25uM inhibitor.

Test [19] concerns the target Casein kinase I isoform delta (Homo sapiens, UniProt P48730). Description: Percentage CK1delta activity remaining in the presence of 25uM inhibitor. Particulars: filed as antagonist.

MAP kinase-interacting serine/threonine-protein kinase 2 (Homo sapiens), sequence (Q9HBH9 whole entry, looked up): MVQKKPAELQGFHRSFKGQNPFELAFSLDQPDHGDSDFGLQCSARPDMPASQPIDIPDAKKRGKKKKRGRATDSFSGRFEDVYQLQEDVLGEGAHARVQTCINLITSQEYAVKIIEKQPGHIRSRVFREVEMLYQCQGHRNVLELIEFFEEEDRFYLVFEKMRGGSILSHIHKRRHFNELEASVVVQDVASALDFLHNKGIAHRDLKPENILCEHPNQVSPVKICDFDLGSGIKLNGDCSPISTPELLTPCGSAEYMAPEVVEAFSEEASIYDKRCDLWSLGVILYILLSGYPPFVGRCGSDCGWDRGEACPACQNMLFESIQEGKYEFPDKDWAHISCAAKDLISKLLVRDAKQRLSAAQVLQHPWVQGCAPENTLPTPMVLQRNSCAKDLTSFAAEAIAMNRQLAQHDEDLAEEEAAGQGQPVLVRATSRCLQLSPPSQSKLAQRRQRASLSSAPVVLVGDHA
Tyrosine-protein kinase CSK, sequence (P41240 2-450 limits assumed): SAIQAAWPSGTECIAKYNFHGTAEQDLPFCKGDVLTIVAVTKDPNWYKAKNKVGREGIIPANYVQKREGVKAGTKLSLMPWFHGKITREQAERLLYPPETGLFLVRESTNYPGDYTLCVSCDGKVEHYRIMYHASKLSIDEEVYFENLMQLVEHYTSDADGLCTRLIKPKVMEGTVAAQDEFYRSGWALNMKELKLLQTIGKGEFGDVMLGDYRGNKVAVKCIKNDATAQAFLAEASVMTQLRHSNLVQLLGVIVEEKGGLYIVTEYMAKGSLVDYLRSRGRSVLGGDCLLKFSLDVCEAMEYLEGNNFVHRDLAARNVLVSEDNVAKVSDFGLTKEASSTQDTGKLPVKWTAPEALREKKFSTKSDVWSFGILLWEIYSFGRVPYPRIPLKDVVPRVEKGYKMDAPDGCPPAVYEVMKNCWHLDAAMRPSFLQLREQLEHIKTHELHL
Casein kinase I isoform delta, sequence (P48730 whole entry, looked up, canonical isoform): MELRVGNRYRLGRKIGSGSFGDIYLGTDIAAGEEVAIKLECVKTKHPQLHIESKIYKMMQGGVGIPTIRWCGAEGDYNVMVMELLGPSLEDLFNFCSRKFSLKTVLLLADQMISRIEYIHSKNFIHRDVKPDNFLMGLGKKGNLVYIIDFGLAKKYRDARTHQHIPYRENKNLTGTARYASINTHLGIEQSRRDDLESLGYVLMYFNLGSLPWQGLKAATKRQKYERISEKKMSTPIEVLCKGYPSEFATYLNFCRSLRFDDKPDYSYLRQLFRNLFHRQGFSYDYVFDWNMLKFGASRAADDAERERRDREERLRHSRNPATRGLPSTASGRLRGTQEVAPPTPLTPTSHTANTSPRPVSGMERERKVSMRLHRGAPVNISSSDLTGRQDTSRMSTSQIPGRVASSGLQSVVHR
MAP kinase-interacting serine/threonine-protein kinase 1 (Homo sapiens), sequence (Q9BUB5 whole entry, looked up): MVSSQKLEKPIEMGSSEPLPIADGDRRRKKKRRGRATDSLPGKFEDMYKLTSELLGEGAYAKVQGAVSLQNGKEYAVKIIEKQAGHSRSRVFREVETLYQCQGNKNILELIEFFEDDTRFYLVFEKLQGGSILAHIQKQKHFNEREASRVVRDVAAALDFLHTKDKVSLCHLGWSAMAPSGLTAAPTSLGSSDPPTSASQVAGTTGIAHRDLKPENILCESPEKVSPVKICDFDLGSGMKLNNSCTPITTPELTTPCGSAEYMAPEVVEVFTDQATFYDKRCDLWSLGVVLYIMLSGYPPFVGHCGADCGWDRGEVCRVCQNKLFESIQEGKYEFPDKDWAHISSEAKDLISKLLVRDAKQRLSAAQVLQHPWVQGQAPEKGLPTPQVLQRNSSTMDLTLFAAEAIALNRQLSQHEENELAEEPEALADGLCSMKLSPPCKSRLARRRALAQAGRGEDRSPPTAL
Calcium/calmodulin-dependent protein kinase type 1 (Homo sapiens), sequence (Q14012 whole entry, looked up): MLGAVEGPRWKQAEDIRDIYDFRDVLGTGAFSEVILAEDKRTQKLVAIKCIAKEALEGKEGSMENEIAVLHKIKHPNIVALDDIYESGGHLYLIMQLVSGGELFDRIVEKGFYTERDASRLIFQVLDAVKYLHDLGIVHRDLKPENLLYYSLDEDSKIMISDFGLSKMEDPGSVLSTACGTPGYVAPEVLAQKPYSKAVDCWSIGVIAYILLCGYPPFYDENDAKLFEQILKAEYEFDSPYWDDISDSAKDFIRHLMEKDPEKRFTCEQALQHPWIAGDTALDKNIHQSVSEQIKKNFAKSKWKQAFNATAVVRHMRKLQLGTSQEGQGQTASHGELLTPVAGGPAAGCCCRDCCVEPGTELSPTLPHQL
Calcium/calmodulin-dependent protein kinase kinase 1 (Homo sapiens), sequence (Q8N5S9 whole entry, looked up): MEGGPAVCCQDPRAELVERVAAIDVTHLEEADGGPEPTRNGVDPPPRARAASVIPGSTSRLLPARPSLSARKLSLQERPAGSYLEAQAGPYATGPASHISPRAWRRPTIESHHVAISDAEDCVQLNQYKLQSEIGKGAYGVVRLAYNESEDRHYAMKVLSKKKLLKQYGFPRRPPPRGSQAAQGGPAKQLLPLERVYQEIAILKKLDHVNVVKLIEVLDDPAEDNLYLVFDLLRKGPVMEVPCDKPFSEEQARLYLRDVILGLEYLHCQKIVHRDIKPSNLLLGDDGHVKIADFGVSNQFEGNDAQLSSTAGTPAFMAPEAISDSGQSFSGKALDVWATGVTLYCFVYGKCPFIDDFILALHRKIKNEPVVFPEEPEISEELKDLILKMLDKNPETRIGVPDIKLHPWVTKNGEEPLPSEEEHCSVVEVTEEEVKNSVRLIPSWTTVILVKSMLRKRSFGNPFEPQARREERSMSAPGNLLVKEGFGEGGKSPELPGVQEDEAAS
Proto-oncogene tyrosine-protein kinase LCK (Mus musculus), sequence (P06240 2-509 limits assumed): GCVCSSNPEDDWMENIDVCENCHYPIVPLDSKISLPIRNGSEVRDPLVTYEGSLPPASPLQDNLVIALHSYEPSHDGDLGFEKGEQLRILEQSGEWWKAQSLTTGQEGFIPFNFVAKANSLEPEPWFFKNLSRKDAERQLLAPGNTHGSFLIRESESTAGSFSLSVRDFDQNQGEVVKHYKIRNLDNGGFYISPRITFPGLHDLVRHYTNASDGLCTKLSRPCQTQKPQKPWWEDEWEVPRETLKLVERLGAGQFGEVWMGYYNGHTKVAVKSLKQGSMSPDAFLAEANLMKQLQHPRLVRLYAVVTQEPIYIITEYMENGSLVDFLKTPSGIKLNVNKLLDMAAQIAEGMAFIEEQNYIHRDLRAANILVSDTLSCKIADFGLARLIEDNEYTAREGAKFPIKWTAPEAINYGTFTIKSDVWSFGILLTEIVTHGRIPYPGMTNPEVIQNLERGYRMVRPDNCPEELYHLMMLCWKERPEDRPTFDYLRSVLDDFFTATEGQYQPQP
Ribosomal protein S6 kinase alpha-1 (Homo sapiens), sequence (Q15418 whole entry): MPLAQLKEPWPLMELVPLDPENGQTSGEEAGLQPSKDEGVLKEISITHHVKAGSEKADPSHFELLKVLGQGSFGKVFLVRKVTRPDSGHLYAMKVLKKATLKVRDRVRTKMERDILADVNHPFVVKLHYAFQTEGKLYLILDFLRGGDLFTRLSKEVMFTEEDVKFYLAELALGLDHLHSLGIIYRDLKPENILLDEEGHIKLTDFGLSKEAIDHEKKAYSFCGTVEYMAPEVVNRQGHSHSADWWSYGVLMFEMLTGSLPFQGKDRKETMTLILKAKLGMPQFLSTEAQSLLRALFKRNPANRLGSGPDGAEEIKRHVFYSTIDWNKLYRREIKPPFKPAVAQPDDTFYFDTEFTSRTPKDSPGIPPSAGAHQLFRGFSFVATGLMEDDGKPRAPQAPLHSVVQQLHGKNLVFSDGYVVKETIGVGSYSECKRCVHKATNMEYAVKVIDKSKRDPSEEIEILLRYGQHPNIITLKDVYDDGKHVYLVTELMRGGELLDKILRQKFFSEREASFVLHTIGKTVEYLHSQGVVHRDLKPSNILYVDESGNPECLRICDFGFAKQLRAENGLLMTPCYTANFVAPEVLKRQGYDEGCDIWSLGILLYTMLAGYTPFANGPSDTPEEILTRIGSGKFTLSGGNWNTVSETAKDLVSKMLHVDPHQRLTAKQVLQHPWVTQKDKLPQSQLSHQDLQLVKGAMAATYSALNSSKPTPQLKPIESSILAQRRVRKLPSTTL
Aurora kinase B, sequence (Q96GD4 whole entry): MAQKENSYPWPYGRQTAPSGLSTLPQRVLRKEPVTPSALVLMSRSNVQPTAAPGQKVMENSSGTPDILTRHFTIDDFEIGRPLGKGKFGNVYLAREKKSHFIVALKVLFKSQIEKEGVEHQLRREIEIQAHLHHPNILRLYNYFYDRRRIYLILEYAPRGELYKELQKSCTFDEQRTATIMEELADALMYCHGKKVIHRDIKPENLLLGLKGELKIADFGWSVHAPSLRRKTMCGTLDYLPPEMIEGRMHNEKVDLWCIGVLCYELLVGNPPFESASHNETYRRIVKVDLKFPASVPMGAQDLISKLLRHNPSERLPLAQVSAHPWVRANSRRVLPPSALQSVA
RAC-alpha serine/threonine-protein kinase (Homo sapiens), sequence (P31749 whole entry): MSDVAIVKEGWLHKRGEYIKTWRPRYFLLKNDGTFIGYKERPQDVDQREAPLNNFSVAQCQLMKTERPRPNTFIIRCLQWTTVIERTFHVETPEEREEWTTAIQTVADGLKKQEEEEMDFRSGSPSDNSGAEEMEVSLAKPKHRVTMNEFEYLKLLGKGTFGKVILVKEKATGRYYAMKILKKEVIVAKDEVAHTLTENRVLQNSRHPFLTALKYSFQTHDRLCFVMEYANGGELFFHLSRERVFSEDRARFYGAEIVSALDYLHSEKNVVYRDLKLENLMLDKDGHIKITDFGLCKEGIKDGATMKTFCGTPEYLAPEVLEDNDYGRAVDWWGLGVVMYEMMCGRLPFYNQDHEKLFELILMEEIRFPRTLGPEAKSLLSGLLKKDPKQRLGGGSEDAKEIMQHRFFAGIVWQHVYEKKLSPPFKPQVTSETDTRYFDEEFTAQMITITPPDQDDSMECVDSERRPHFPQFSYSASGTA

For the compound `Cc1n[nH]c2ccc(-c3cncc(OC[C@@H](N)Cc4c[nH]c5ccccc45)c3)cc12`, the Activity in test [1] stood at 92%.
As for `COc1cc(OC)c(/C=C2/C(=O)Nc3ccccc32)c(OC)c1`, the Activity in test [2] was 81%; in [3], 78%; in test [4], 86%; in test [5], 94%; in [6] (filed as antagonist) it was 49%; in [7], 87%. Besides, the Activity in [8] is 79%; in [9], 93%; in test [10], 55%; in test [11], 70%; in test [12] it was 95%; in test [13], 75%. The Activity is 67% in [14]; 79% in test [15]; 75% in test [16]; 97% in [17]; 90% in test [18]; 9% in test [19].
Consider `O=C(NCCCNc1nc(Nc2cccc(NC(=O)N3CCCC3)c2)ncc1I)c1cccs1`, for which, in test [1], the Activity was determined as 99%.
With `NCCNS(=O)(=O)c1ccc(Cl)c2ccncc12`, the Activity was 79% in test [2]; 65% in test [3]; 76% in test [4]; 54% in [5]; 83% in test [6]; 48% in test [7] (filed as antagonist). The Activity in [8] (filed as antagonist) was 25%; in test [9] it was 100%; in [10], 82%; in [11], 91%; in test [12], 81%; in test [13], 63%. For the same compound, the Activity was 86% in test [14]; 26% in test [15] (filed as antagonist); 78% in [16]; 76% in test [17]; 87% in [18]; 12% in test [19].
